Where two headings read alike, the source gives them in different places.
Columns and labels:
Vero cells = conditions: African green monkey
DENV-2 16681 strain = test: DENV-2 antiviral assay (eGFP-labeled virus, Vero cells); format: cell-based, Dengue virus; conditions: for EC50: DENV-2 16681 eGFP, Vero cells, MOI 0.5, 3 days; for SI: SI=CC50/EC50, DENV-2 antiviral assay
Experimental: The antiviral activity of all the compounds of the invention was tested against the DENV-2 16681 strain which was labeled with enhanced green fluorescent protein (eGPF). The culture medium consists of minimal essential medium supplemented with 2% of heat-inactivated fetal calf serum, 0.04% gentamycin (50 mg/mL) and 2 mM of L-glutamine. Vero cells, obtained from ECACC, were suspended in culture medium and 25 μL was added to 384-well plates (2500 cells/well), which already contain the antiviral compounds. Typically, these plates contain a 5-fold serial dilution of 9 dilution steps of the test compound at 200 times the final concentration in 100% DMSO (200 nL). […] Finally, each plate contains wells which are assigned as virus controls (containing cells and virus in the absence of compound), cell controls (containing cells in the absence of virus and compound) and medium controls (containing medium in the absence of cells, virus and compounds). To the wells assigned as medium control, 25 μL of culture medium was added instead of Vero cells. Once the cells were added to the plates, the plates were incubated for 30 minutes at room temperature to allow the cells to distribute evenly within the wells. Next, the plates were incubated in a fully humidified incubator (37° C., 5% CO2) until the next day. Then, DENV-2 strain 16681, labeled with eGFP, was added at a multiplicity of infection (MOI) of 0.5. Therefore, 15 μL of virus suspension was added to all the wells containing test compound and to the wells assigned as virus control. In parallel, 15 μL of culture medium was added to the medium and cell controls. Next, the plates were incubated for 3 days in a fully humidified incubator (37° C., 5% CO2). At the day of the read out, the eGFP fluorescence was measured using an automated fluorescence microscope at 488 nm (blue laser). Using an in-house LIMS system, inhibition dose response curves for each compound were calculated and the half maximal effective concentration (EC50) was determined. Therefore, the percent inhibition (I) for every test concentration is calculated using the following formula: I=100*([…])/(SVC−SCC); ST, SCC and SVC are the amount of eGFP signal in the test compound, cell control and virus control wells, respectively. The EC50 represents the concentration of a compound at which the virus replication is inhibited with 50%, as measured by a 50% reduction of the eGFP fluorescent intensity compared to the virus control. The EC50 is calculated using linear interpolation (Table 1).

DENV-1 strain TC974#666 = test: Tetravalent RT-qPCR assay, serotype 1; format: cell-based, Dengue virus; conditions: for EC50: Dengue virus, DENV1, Vero, 72 h, RT-qPCR serotype 1 TC974#666, Protocol A, Vero cells, day 3; for SI: RT-qPCR serotype 1 TC974#666
Experimental: (§1) The antiviral activity of the compounds of the invention was tested against DENV-1 strain TC974#666 (NCPV), DENV-2 strain 16681, DENV-3 strain H87 (NCPV) and DENV-4 strain H241 (NCPV) in a RT-qPCR assay. Therefore, Vero cells were infected with either DENV-1, or -2, or -3, or -4 in the presence or absence of test compounds. At day 3 post-infection, the cells were lysed and cell lysates were used to prepare cDNA of both a viral target (the 3′UTR of DENV; Table 2) and a cellular reference gene (β-actin, Table 2). Subsequently, a duplex real time PCR was performed on a Lightcycler480 instrument. The generated Cp value is inversely proportional to the amount of RNA expression of these targets. Inhibition of DENV replication by a test compound result in a shift of Cp's for the 3′UTR gene. On the other hand, if a test compound is toxic to the cells, a similar effect on β-actin expression will be observed. The comparative ΔΔCp method is used to calculate EC50, which is based on the relative gene expression of the target gene (3′UTR) normalized with the cellular housekeeping gene (β-actin). In addition, CC50 values are determined based on the Cp values acquired for the housekeeping gene β-actin.
(§2) The culture medium consisted of minimal essential medium supplemented with 2% of heat-inactivated fetal calf serum, 0.04% gentamycin (50 mg/mL) and 2 mM of L-glutamine. Vero cells, obtained from ECACC, were suspended in culture medium and 75 μL/well was added in 96-well plates (10000 cells/well), which already contain the antiviral compounds. […] In addition, each plate contains wells which are assigned as virus controls (containing cells and virus in the absence of compound) and cell controls (containing cells in the absence of virus and compound). Once the cells were added in the plates, the plates were incubated in a fully humidified incubator (37° C., 5% CO2) until the next day. Dengue viruses serotype-1, 2, 3 and 4 were diluted in order to obtain a Cp of ˜22-24 in the assay. Therefore, 25 μL of virus suspension was added to all the wells containing test compound and to the wells assigned as virus control. In parallel, 25 μL of culture medium was added to the cell controls. Next, the plates were incubated for 3 days in a fully humidified incubator (37° C., 5% CO2). After 3 days, the supernatant was removed from the wells and the cells were washed twice with ice-cold PBS (˜100 μL). The cell pellets within the 96-well plates were stored at −80° C. for at least 1 day. Next, RNA was extracted using the Cells-to-CT™ lysis kit, according to the manufacturer's guideline (Life Technologies). The cell lysates can be stored at −80° C. or immediately used in the reverse transcription step.
(§3) In preparation of the reverse transcription step, mix A (table 3A) was prepared and 7.57 μL/well was dispensed in a 96-well plate. After addition of 5 μL of the cell lysates, a five minute denaturation step at 75° C. was performed (table 3B). Afterwards, 7.43 μL of mix B was added (table 3C) and the reverse transcription step was initiated (table 3D) to generate cDNA.
(§4) Finally, a RT-qPCR mix was prepared, mix C (table 4A), and 22.02 μL/well was dispensed in 96-well LightCycler qPCR plates to which 3 μL of cDNA was added and the qPCR was performed according to the conditions in table 4B on a LightCycler 480.
(§5) Using the LightCycler software and an in-house LIMS system, dose response curves for each compound were calculated and the half maximal effective concentration (EC50) and the half maximal cytotoxic concentration (CC50) were determined (Tables 5-8).

DENV-3 strain H87 = test: Tetravalent RT-qPCR assay, serotype 3; format: cell-based, Dengue virus; conditions: for EC50: Dengue virus, DENV3, Vero, 72 h, RT-qPCR serotype 3 H87, Protocol A, Vero cells, day 3; for SI: RT-qPCR serotype 3 H87
Experimental: as §1, §2, §3, §4, §5

in vitro [1] = format: cell-based; conditions: African green monkey, CC50
Experimental: as §1, §2, §5

DENV-4 strain H241 = test: Tetravalent RT-qPCR assay, serotype 4; format: cell-based, Dengue virus; conditions: for EC50: Dengue virus, DENV4, Vero, 72 h, RT-qPCR serotype 4 H241, Protocol A, Vero cells, day 3; for SI: RT-qPCR serotype 4 H241
Experimental: as §1, §2, §3, §4, §5

DENV-2 strain 16681 = test: Tetravalent RT-qPCR assay, serotype 2; format: cell-based, Dengue virus; conditions: for EC50: Dengue virus, DENV2, Vero, 72 h, RT-qPCR serotype 2 16681, Protocol A, Vero cells, day 3; for SI: RT-qPCR serotype 2 16681
Experimental: as §1, §2, §3, §4, §5

in vitro [2] = conditions: African green monkey

## COc1cc(NC(C(=O)c2c[nH]c3ccc(C)cc23)c2ccc(F)cc2OC)cc(OCCO)c1 (single isomer, unassigned) [Compound 5B]
Vero cells
  CC50: 11000 nM
DENV-2 16681 strain
  EC50: 820 nM
  SI: 14

## COc1cc(NC(C(=O)c2c[nH]c3cc(F)c(C)cc23)c2ccc(Cl)cc2OC)cc(OCCO)c1 (single isomer, unassigned) [Compound 9B]
DENV-1 strain TC974#666; read-out: EC50
  EC50: 1.4 nM
DENV-1 strain TC974#666
  SI: 1700
DENV-3 strain H87; read-out: EC50
  EC50: 16 nM
DENV-3 strain H87
  SI: 234
In vitro [1]
  CC50 at 3 days: 3000 nM
DENV-4 strain H241
  EC50: 92 nM
  SI: 28
DENV-2 strain 16681
  EC50: 0.69 nM
  SI: 5540
DENV-2 16681 strain
  EC50: 0.44 nM
  SI: 7480

## [2H]C(Nc1cc(OC)cc(OCCO)c1)(C(=O)c1c[nH]c2cc(OC)c(C)cc12)c1ccc(Cl)cc1OC (single isomer, unassigned) [Compound 14A-D]
In vitro [2]
  CC50: 3600 nM
DENV-1 strain TC974#666
  EC50: 3 nM
  SI: 1070
DENV-3 strain H87
  EC50: 9.8 nM
  SI: >261
In vitro [1]
  CC50 at 3 days: > 2300 nM
DENV-4 strain H241
  EC50: 74 nM
  SI: >46
DENV-2 strain 16681
  EC50: 0.29 nM
  SI: >11900
DENV-2 16681 strain
  EC50: 0.26 nM
  SI: 17600

## COc1cc(NC(C(=O)c2c[nH]c3c4c(ccc23)OCC4)c2ccc(F)cc2OC)cc(OCCO)c1 (single isomer, unassigned) [Compound 8B]
Vero cells
  CC50: 12000 nM
DENV-2 16681 strain
  EC50: 820 nM
  SI: 14

## COc1cc(NC(C(=O)c2c[nH]c3ccc(S(F)(F)(F)(F)F)cc23)c2ccc(Cl)cc2OC)cc(OCCO)c1 (single isomer, unassigned) [Compound 15A]
DENV-1 strain TC974#666; read-out: EC50
  EC50: 0.13 nM
DENV-1 strain TC974#666
  SI: 16100
DENV-3 strain H87; read-out: EC50
  EC50: 4.4 nM
DENV-3 strain H87
  SI: 361
Vero cells
  CC50: 2700 nM
DENV-4 strain H241
  EC50: 14 nM
  SI: 84
DENV-2 strain 16681
  EC50: 0.11 nM
  SI: 21200
DENV-2 16681 strain
  EC50: 0.17 nM
  SI: 16000

## COc1cc(NC(C(=O)c2c[nH]c3cc(OC)c(Cl)cc23)c2ccc(F)cc2OC)cc(OCCO)c1 (single isomer, unassigned) [Compound 2B]
Vero cells
  CC50: 11000 nM
DENV-2 16681 strain
  EC50: 130 nM
  SI: 85

## COc1cc(NC(C(=O)c2c[nH]c3cc(F)c(C)cc23)c2ccc(F)cc2OC)cc(OCCO)c1 (single isomer, unassigned) [Compound 3A]
DENV-1 strain TC974#666; read-out: EC50
  EC50: 4 nM
DENV-1 strain TC974#666
  SI: 748
DENV-3 strain H87; read-out: EC50
  EC50: 22 nM
DENV-3 strain H87
  SI: 42
Vero cells
  CC50: 3800 nM
DENV-4 strain H241
  EC50: 210 nM
  SI: 11
DENV-2 strain 16681
  EC50: 1.6 nM
  SI: 1610
DENV-2 16681 strain
  EC50: 1.1 nM
  SI: 3230

## COc1cc(NC(C(=O)c2c[nH]c3cc(F)ccc23)c2ccc(Cl)cc2OC)cc(OCCOP(=O)(O)O)c1 (single isomer, unassigned) [Compound 13B-P]
Vero cells
  CC50: 11000 nM
DENV-2 16681 strain
  EC50: 13 nM
  SI: 822

Source: patent US10730884B2, “Substituted indole compound derivatives as dengue viral replication inhibitors” (Janssen Pharmaceuticals, Inc., priority 2016, dated 2020)
